Test results published in patent US11319328B2 (priority 2017, dated 2022).

What was measured:
Assay in all cases: cells
Type in all cases: cell-based
cervical cancer Hela = settings: cultured 48 h, MTT
Description: (§1) A cell strain: Hepatoma HepG2, cervical cancer Hela, lung cancer A549, breast cancer MCF7 cell line and human normal liver cell HL7702 were purchased from Wuhan Boster Biological Technology Co., Ltd.;
(§2) HepG2, Hela, A549, MCF 7 cells in logarithmic growth phase and human normal hepatocytes HL7702 were centrifuged at 1500 rpm for 5 min, and the supernatant was discarded; the cells were digested with a suitable amount of trypsin, and then suspended with a suitable amount of culture medium (HepG2, Hela and HL7702 cells were suspended with penicillin-streptomycin RPMI1640 culture medium containing 10% calf serum, A549 and MCF 7 cells with penicillin-streptomycin high glucose DMEM culture medium containing 10% calf serum, to adjust the cell concentration to 1.5×10^4 cells/well, the cells were seeded in 96-well plates, and the following experimental groups were set:
(§3) 0.10 mL of the cell suspension was added to each well, and incubated at 37° C., 5% CO2 and saturated humidity for 12 h, and the culture medium was discarded when the cell density was nearly 70%. […] 100 μl of 5 mg/ml MTT was added per well, standing for 4 h at 37° C. 100 μl of DMSO was added to each well, followed by shaking on a shaker for 10 min at 37° C., the absorbance (OD) was measured at 492 nm, and the MTT ratio was calculated as the OD value of drug group/OD value of negative control group.

lung cancer A549 = settings: cultured 48 h, MTT
Description: as §1, §2, §3

Hepatoma HepG2 = settings: cultured 48 h, MTT
Description: as §1, §2, §3

[1] = test system: human normal liver cell HL7702; settings: human normal hepatocytes HL7702, cultured 48 h, MTT
Description: as §1, §2, §3

[2] = test system: breast cancer MCF7 cell line; settings: cultured 48 h, MTT
Description: as §1, §2, §3

Row | Compound | IC50 (cervical cancer Hela) [µM] | IC50 (lung cancer A549) [µM] | IC50 (Hepatoma HepG2) [µM] | IC50 [1] [µM] | IC50 [2] [µM]
1 | COc1cc(C2c3cc4c(cc3C(Nc3cccc5ccc(C)nc35)C3COC(=O)C23)OCO4)cc(OC)c1O (stereo not drawn) [Compound 30, 4β-NH-(8-aminoquinaldine)-4′-demethylepipodophyllotoxin] | 4.2 ± 0.8 | 0.5 ± 0.05 | 5 ± 1.1 | > 100 | 3 ± 0.5
2 | COc1cc([C@@H]2c3cc4c(cc3[C@@H](Nc3ccc5[nH]ccc5c3)[C@@H]3COC(=O)[C@H]23)OCO4)cc(OC)c1O [Compound 34, 4β-NH-(5-aminoindole)-4′-demethylepipodophyllotoxin] | 21.7 ± 5.3 | > 100 | > 100 | > 100 | 76.3 ± 5.7
3 | COc1cc(C2c3cc4c(cc3C(Nc3ccccc3-c3nc5ccccc5[nH]3)C3COC(=O)C23)OCO4)cc(OC)c1OC (stereo not drawn) [Compound 18, 4β-NH-(2-(2-aminophenyl)benzimidazole)-podophyllotoxin] | 4.8 ± 0.2 | 2.8 ± 0.1 | 3.6 ± 0.3 | > 100 | 1.7 ± 0.2
4 | COc1cc([C@@H]2c3cc4c(cc3[C@@H](Nc3cccc5cccnc35)[C@@H]3COC(=O)[C@H]23)OCO4)cc(OC)c1O [Compound 29, 4β-NH-(8-aminoquinoline)-4′-demethylepipodophyllotoxin] | 3.8 ± 0.2 | 2.8 ± 0.4 | 4.5 ± 1.5 | 73 ± 7.8 | 1.5 ± 0.4
5 | COc1cc(C2c3cc4c(cc3C(Nc3cccc5ncccc35)C3COC(=O)C23)OCO4)cc(OC)c1O (stereo not drawn) [Compound 27, 4β-NH-(5-aminoquinoline)-4′-demethylepipodophyllotoxin] | 2.1 ± 1 | 1.3 ± 0.2 | 1.6 ± 0.8 | 15.6 ± 1.8 | 2.4 ± 0.9
6 | COc1cc([C@@H]2c3cc4c(cc3[C@@H](Nc3cccc5c3C(=O)c3cccc(N)c3C5=O)[C@@H]3COC(=O)[C@H]23)OCO4)cc(OC)c1O [Compound 23, 4β-NH-(1,5-diaminoanthraquinone)-4′-demethylepipodophyllotoxin] | > 100 | > 100 | > 100 | > 100 | > 100
7 | COc1cc([C@@H]2c3cc4c(cc3[C@@H](Nc3ccc(C)c(-c5nccc(-c6cccnc6)n5)c3)[C@@H]3COC(=O)[C@H]23)OCO4)cc(OC)c1OC [Compound 19, 4β-NH-(2-(5-amino-2-methylphenyl)-4-(3-pyridyl)pyrimidine)-podophyllotoxin] | 4.8 ± 0.4 | 7.7 ± 0.6 | 6.6 ± 0.1 | > 100 | 9.5 ± 0.8
8 | COc1cc([C@@H]2c3cc4c(cc3[C@@H](Nc3ccc5c(c3)C(=O)c3ccc(N)cc3C5=O)[C@@H]3COC(=O)[C@H]23)OCO4)cc(OC)c1OC [Compound 5, 4β-NH-(2,6-diaminoanthraquinone) podophyllotoxin] | 6.5 ± 0.5 | > 100 | 9.1 ± 1.2 | > 100 | > 100
9 | 4β-NH-(7-indazolamine)-4′-demethylepipodophyllotoxin [Compound 33] | 34 ± 1.1 | 24.5 ± 5 | 22.5 ± 2.6 | 29.8 ± 1.9 | 16.4 ± 0.9
10 | COc1cc(C2c3cc4c(cc3C(Nc3ccc5cc[nH]c5c3)C3COC(=O)C23)OCO4)cc(OC)c1OC (stereo not drawn) [Compound 16, 4β-NH-(6-aminoindole) podophyllotoxin] | 0.4 ± 0.01 | 0.2 ± 0.02 | 0.6 ± 0.01 | 140 | 0.3 ± 0.01
11 | COc1cc([C@@H]2c3cc4c(cc3[C@@H](Nc3ccc5c(c3)C(=O)c3ccccc3C5=O)[C@@H]3COC(=O)[C@H]23)OCO4)cc(OC)c1O [Compound 21, 4β-NH-(2-aminoanthraquinone)-4′-demethylepipodophyllotoxin] | 1.9 ± 0.3 | > 100 | 1.1 ± 0.4 | 55.4 ± 6.2 | 4 ± 0.5
12 | COc1cc(C2c3cc4c(cc3C(Nc3ccc5cn[nH]c5c3)C3COC(=O)C23)OCO4)cc(OC)c1OC (stereo not drawn) [Compound 13, 4β-NH-(6-indazolamine) podophyllotoxin] | 2.1 ± 0.3 | 2.4 ± 0.2 | 1.8 ± 0.2 | 33.6 ± 1.5 | 1.3 ± 0.2
13 | COc1cc([C@@H]2c3cc4c(cc3[C@@H](Nc3cccc5cn[nH]c35)[C@@H]3COC(=O)[C@H]23)OCO4)cc(OC)c1OC [Compound 14, 4β-NH-(7-indazolamine) podophyllotoxin] | 0.9 ± 0.01 | 0.5 ± 0.01 | 0.9 ± 0.1 | 43.3 ± 2.8 | 0.4 ± 0.01
14 | 4β-NH-(2-(5-amino-2-methylphenyl)-4-(3-pyridyl) pyrimidine)-4′-demethylepipodophyllotoxin [Compound 38] | 35.1 ± 5.9 | 15.5 ± 2 | 29.5 ± 3.2 | > 100 | 14.5 ± 3.8
15 | COc1cc(C2c3cc4c(cc3C(Nc3ccc5[nH]ncc5c3)C3COC(=O)C23)OCO4)cc(OC)c1O (stereo not drawn) [Compound 31, 4β-NH-(5-indazolamine)-4′-demethylepipodophyllotoxin] | 4.3 ± 0.9 | 1.7 ± 0.3 | 6.8 ± 1.5 | > 100 | 3.5 ± 0.3
16 | COc1cc([C@@H]2c3cc4c(cc3[C@@H](Nc3cccc5cccnc35)[C@@H]3COC(=O)[C@H]23)OCO4)cc(OC)c1OC [Compound 10, 4β-NH-(8-aminoquinoline) podophyllotoxin] | 2.7 ± 0.3 | 1.2 ± 0.2 | 4.6 ± 0.4 | 37 ± 4.8 | 1 ± 0.1
17 | COc1cc(C2c3cc4c(cc3C(Nc3ccccc3-c3nc5ccccc5[nH]3)C3COC(=O)C23)OCO4)cc(OC)c1O (stereo not drawn) [Compound 37, 4β-NH-(2-(2-aminophenyl)benzimidazole)-4′-demethylepipodophyllotoxin] | 48.6 ± 6.2 | > 100 | > 100 | > 100 | > 100
18 | COc1cc([C@@H]2c3cc4c(cc3[C@@H](Nc3nc(N)nc5ccccc35)[C@@H]3COC(=O)[C@H]23)OCO4)cc(OC)c1O [Compound 25, 4β-NH-(2,4-quinazolinediamine)-4′-demethylepipodophyllotoxin] | 3.6 ± 0.9 | 3.6 ± 0.8 | 9.8 ± 1.7 | 16.9 ± 2.5 | 6.1 ± 1.3
19 | COc1cc([C@@H]2c3cc4c(cc3[C@@H](Nc3nc(N)nc5ccccc35)[C@@H]3COC(=O)[C@H]23)OCO4)cc(OC)c1OC [Compound 6, 4β-NH-(2,4-quinazolinediamine) podophyllotoxin] | 19.2 ± 1.9 | 14.3 ± 2.3 | > 100 | 13.8 ± 1.9 | 24.5 ± 4.4
20 | COc1cc(C2c3cc4c(cc3C(Nc3ccc5c(c3)C(=O)c3ccc(N)cc3C5=O)C3COC(=O)C23)OCO4)cc(OC)c1O (stereo not drawn) [Compound 24, 4β-NH-(2,6-diaminoanthraquinone)-4′-demethylepipodophyllotoxin] | > 100 | > 100 | > 100 | > 100 | 4.2 ± 1.1
21 | COc1cc(C2c3cc4c(cc3C(Nc3ccc5cc[nH]c5c3)C3COC(=O)C23)OCO4)cc(OC)c1O (stereo not drawn) [Compound 35, 4β-NH-(6-aminoindole)-4′-demethylepipodophyllotoxin] | 21.1 ± 2.9 | 6.5 ± 1 | 19.5 ± 2.4 | > 100 | 34.5 ± 3.8
22 | COc1cc(C2c3cc4c(cc3C(Nc3ccc5[nH]ncc5c3)C3COC(=O)C23)OCO4)cc(OC)c1OC (stereo not drawn) [Compound 12, 4β-NH-(5-indazolamine) podophyllotoxin] | 0.5 ± 0.01 | 0.2 ± 0.02 | 0.3 ± 0.02 | 50 | 0.4 ± 0.03
